From PubChem BioAssay AID1996
Converted amounts (≈) assume the structure as drawn.

Details: buffer; pH 7.4; 200.0 µM

Point of comparison: `O=C(O)C1CCCNC1` (stereo not given), solubility kinetic 0.4 µg/mL (≈ 3.1 µM). Against it:
- Cn1c(CNC(=O)c2ccccc2F)cc2ccccc21 — 25-fold higher, 10.1 µg/mL (≈ 35.8 µM)
- CC(=O)O.O=C(NCC1CCCCN1)c1cc(OCC(F)(F)F)ccc1OCC(F)(F)F (stereo not given) — higher, > 71.2 µg/mL
- CSCC[C@H](NC(=O)c1ccco1)c1nnc2ccccn12 — higher, > 47.5 µg/mL
- O=C(NNC1=NS(=O)(=O)c2ccccc21)c1ccccc1 — higher, > 45.2 µg/mL
- N#Cc1ccccc1S(=O)(=O)N1CCN(C(=O)C2CC(=O)N(c3ccc4c(c3)OCCO4)C2)CC1 (stereo not given) — 170-fold higher, 68.6 µg/mL (≈ 138 µM)
- Cn1ccnc1SCC(=O)Nc1ccc([N+](=O)[O-])cn1 — higher, > 44 µg/mL
- O=C1CCCc2c1nc(-c1ccccc1F)n2O — higher, > 36.9 µg/mL
- Cc1c(C(C)(C)C)s/c(=N/S(=O)(=O)c2ccccc2)n1C — 110-fold higher, 43.7 µg/mL (≈ 135 µM)
- O=C(NCc1ccccc1F)Nc1ccc([N+](=O)[O-])cc1 — 3.2-fold higher, 1.3 µg/mL (≈ 4.49 µM)
- O=C(OCC(=O)c1ccc[nH]1)c1ccc(F)c(S(=O)(=O)N2CCOCC2)c1 — 20-fold higher, 7.8 µg/mL (≈ 19.7 µM)
- O=C(CCCSc1ccccc1)Nc1cccc(CO)c1 — higher, > 45.2 µg/mL
- CCOc1ccc(OCC)c(S(=O)(=O)n2ccnc2C)c1 — 49-fold higher, 19.7 µg/mL (≈ 63.5 µM)
- O=c1[nH]c(=S)n(-c2ccc(F)cc2)c(O)c1/C=N/N1CCOCC1 — higher, > 52.6 µg/mL
- Cc1ccc(S(N)(=O)=O)cc1NC(=O)/C=C/c1ccc2c(c1)OCO2 — 5.2-fold higher, 2.1 µg/mL (≈ 5.83 µM)
- CC(C)c1ccc(NC(=S)NC2CC3C=CC2C3)cc1 (stereo not given) — 3.5-fold higher, 1.4 µg/mL (≈ 4.89 µM)
- Cc1csc2c(=O)sc(NC(=O)c3ccc(F)cc3)nc12 — lower, < 0.3 µg/mL
- O=C(Cc1ccccc1)NC(C(=O)O)C(O)c1ccc([N+](=O)[O-])cc1 (stereo not given) — higher, > 51.6 µg/mL
- O=C(Nc1nncs1)c1cc(-c2ccco2)nc2ccccc12 — higher, > 48.4 µg/mL
- O=C(NC1CCCCC1)Oc1cc2oc(=O)sc2cc1Br — 25-fold higher, 10.2 µg/mL (≈ 27.4 µM)
- CC(OC(=O)COc1ccccc1)C(=O)NC1CCCC1 (stereo not given) — higher, > 43.7 µg/mL
- O=C(CCc1ccccc1)NCCc1cccs1 — higher, > 38.9 µg/mL
- Cc1ccc(CNC(=O)C2CSC3(C)CCC(=O)N23)cc1 (stereo not given) — higher, > 45.7 µg/mL
- CCS(=O)(=O)N1CCC(C(=O)Oc2ccccc2OC)CC1 — higher, > 49.1 µg/mL
- Cc1ccc(NC(=S)NCCc2c[nH]c3ccccc23)c(C)c1 — 51-fold higher, 20.4 µg/mL (≈ 63.1 µM)
- COc1cccc(CNC(=O)Cn2ccc([N+](=O)[O-])n2)c1 — higher, > 43.5 µg/mL
- COc1ccc(C2(O)C(=O)Nc3ccc(C)cc32)cc1 (stereo not given) — higher, > 40.4 µg/mL
- COc1ccc(NS(=O)(=O)c2csc(C(N)=O)c2)cc1 — higher, > 46.9 µg/mL
- COc1ccccc1NC(=O)c1ccc(COc2ccccc2OC)cc1 — 7.8-fold higher, 3.1 µg/mL (≈ 8.53 µM)
- CCN1C(=O)c2cccc3c(Cl)ccc(c23)C1=O — 2.5-fold higher, 1 µg/mL (≈ 3.85 µM)
- COc1ccc(C2C(C#N)=C(N)Oc3c2oc(CO)cc3=O)cc1 (stereo not given) — higher, > 48.9 µg/mL
- Cc1ccc(OCCn2ccnc2)c([N+](=O)[O-])c1 — 67-fold higher, 26.8 µg/mL (≈ 108 µM)
- COc1ccc(NC(=O)Cc2c(Cl)cccc2Cl)cn1 — 16-fold higher, 6.2 µg/mL (≈ 19.9 µM)
- Cc1ccc(S(=O)(=O)NCC(=O)OCC(=O)NCc2ccco2)cc1 — higher, > 55 µg/mL
- COc1nc2ccccc2nc1CCC(=O)O — higher, > 34.8 µg/mL
- NCCc1c(Cc2ccccc2)[nH]c2ccccc12 — 86-fold higher, 34.5 µg/mL (≈ 138 µM)
- COc1ccc2nc(Cl)cc(Cl)c2c1 — 2.2-fold higher, 0.9 µg/mL (≈ 3.95 µM)
- Cn1cnc(S(=O)(=O)N2CCN(c3ccc(F)cc3)CC2)c1 — higher, > 48.7 µg/mL
- Cl.OC(COCCC12CC3CC(CC(C3)C1)C2)CN1CCCC1 (stereo not given) — 110-fold higher, 42.3 µg/mL
- Nc1nc(Nc2cccc(F)c2)nc(NCCO)c1[N+](=O)[O-] — 32-fold higher, 12.8 µg/mL (≈ 41.5 µM)
- CC1Cc2ccccc2N1C(=O)Cn1cc([N+](=O)[O-])ccc1=O (stereo not given) — higher, > 47 µg/mL
- CC1CCCN(S(=O)(=O)c2csc(C(N)=O)c2)C1 (stereo not given) — higher, > 43.3 µg/mL
- CCOC(=O)C1CCN(C(=O)Nc2c(-c3ccccc3)noc2C)CC1 — 130-fold higher, 52.1 µg/mL (≈ 146 µM)
- COc1cccc(Nc2nc(-c3sc(C)nc3C)cs2)c1 — within 1.5-fold, 0.3 µg/mL (≈ 0.945 µM)
- Cc1ccc(C(=O)N2CCN(c3ncccn3)CC2)cc1 — higher, > 42.4 µg/mL
